According to patent publication US20240148707A1, “MODULATION OF DRUG-DRUG INTERACTIONS OF VADADUSTAT” (Akebia Therapeutics, Inc., priority 2021, published 2024):
Where two headings read alike, the source gives them in different places.

Tests used:
Type in all cases: in vivo, human
[1] = Phase I drug-drug interaction study with cyclosporine (Part 1, Arm 1)
Method: (§1) A phase I, open-label, 2-part study was conducted in healthy male and female subjects to evaluate the potential for interaction of cyclosporine (Part 1, Arm 1), probenecid (Part 1, Arm 2), and rifampin (Part 2) with vadadustat.
Subjects were randomized in a 1:1 ratio to 1 of 2 dosing sequences (A:B or B:A) to receive vadadustat 300 mg alone and vadadustat 300 mg in combination with oral cyclosporine 500 mg in a crossover design. Study drugs were administered in the morning after at least a 10-hour overnight fast. Subjects remained fasted for at least 4 hours post-dose. • Treatment A: a single oral dose of vadadustat (300 mg) administered as 2×150 mg tablets. • Treatment B: a single oral dose of vadadustat (300 mg) administered as 2×150 mg tablets co-administered with a single oral dose of cyclosporine (500 mg) administered as 5×100 mg capsules.
On the morning of Day 1, subjects received the first treatment (A or B). Following a 7-day washout, subjects crossed over to Period 2 to receive the second treatment of the dosing sequence (A or B) on Day 8.
On each dosing day (Day 1 and Day 8) blood samples for PK analysis were collected up to 48 hours post-dose. Subjects were discharged from the clinical research unit (CRU) on the morning of Day 10, after the final 48-hour post-dose PK sample had been collected. A follow-up phone call was conducted 30 days±2 days after the final dose.

[2] = [14C]-labeled Compound 1 metabolism and excretion study in healthy adult males; conditions: healthy adult male (6), single oral 650 mg [14C]-labeled Compound 1
Description: The urinary excretion rate of this drug and acyl glucuronide is less than 1% of the total radioactivity.

[3] = Phase I drug-drug interaction study with probenecid (Part 1, Arm 2); conditions: for increase in exposure (AUC): administered with multiple doses of probenecid vs vadadustat alone
Method: as §1
On the morning of Day 1, subjects received a single oral dose of vadadustat (300 mg) as 2×150 mg tablets after at least a 10-hour overnight fast and remained fasted for at least 4 hours post-dose. Following a 2-day washout (Days 1 to 2), subjects received 1 oral probenecid 500 mg tablet Q12 h for 4 days (Days 3 to 6). On days that probenecid was administered alone (Days 3, 4, and 6), probenecid was administered in a fasted state 1 hour prior to a standard breakfast and 1 hour prior to an evening meal or snack. On Day 5, probenecid was co-administered with a single dose of vadadustat (300 mg as 2×150 mg tablets) following at least a 10-hour fast. Subjects remained fasted for at least 4 hours after dosing.
On days vadadustat was administered (Day 1 and Day 5), blood samples for PK analysis were collected up to 48 hours postdose. In addition, on vadadustat dosing days, pooled urine samples were collected up to 24 hours post-dose. Subjects were discharged from the CRU on the morning of Day 7, after the final 48-hour post-dose PK sample had been collected. A follow-up phone call was conducted 30 days±2 days after the final dose.

[4] = Phase 1 drug-drug interaction study, vadadustat as perpetrator with adefovir (Arm 2); conditions: for AUC(0-inf) / AUC(0-t) / Cmax: both sexes, human, plasma
Method: A Phase 1, open-label, fixed sequence study was conducted in healthy male and female subjects to evaluate vadadustat as a perpetrator of DDIs with digoxin and/or adefovir.
On the morning of Day 1, subjects received a single oral dose of adefovir 10 mg after at least a 10-hour overnight fast. Subjects remained fasted for at least 4 hours after dosing. Following a 3-day washout period, subjects received vadadustat 600 mg QD beginning on Day 4 for 5 days (Days 4-8). When administered alone, vadadustat was administered in the morning at least 30 minutes prior to breakfast. On Day 7 subjects received their morning dose of vadadustat 600 mg along with a single oral dose of adefovir 10 mg after at least a 10-hour overnight fast.

[5] = Phase 1 drug-drug interaction study, vadadustat as perpetrator with digoxin (Arm 1)
Method: A Phase 1, open-label, fixed sequence study was conducted in healthy male and female subjects to evaluate vadadustat as a perpetrator of DDIs with digoxin and/or adefovir. […] Subjects remained fasted for at least 4 hours after dosing. Following a 12-day washout period, subjects received vadadustat 600 mg QD beginning on Day 13 for 7 days (Days 13-19).

[6] = vadadustat 300 mg + cyclosporine 500 mg, single oral doses, fasted
[7] = vadadustat 300 mg alone, single oral dose, fasted
[8] = vadadustat 300 mg with vs without cyclosporine 500 mg
[9] = vadadustat 300 mg single dose + probenecid 500 mg Q12h (multiple doses), fasted
[10] = vadadustat 300 mg with vs without probenecid 500 mg Q12h
[11] = adefovir 10 mg with vs without vadadustat 600 mg QD
[12] = digoxin 0.5 mg single dose with vadadustat 600 mg QD (Day 16)
[13] = digoxin 0.5 mg with vs without vadadustat 600 mg QD

For `O=C(O)CNC(=O)c1ncc(-c2cccc(Cl)c2)cc1O[C@@H]1O[C@H](C(=O)O)[C@@H](O)[C@H](O)[C@H]1O` [Vadadustat-O-Glucuronide], the “AUCinf, geometric LSM, Treatment V + C” value [1, 6] was 39210 ng·h/mL, the “AUClast, geometric LSM, Treatment V + C” value [1, 6] was 38130 ng·h/mL and the “Cmax, geometric LSM, Treatment V + C” value [1, 6] was 3900 ng/mL. For the same molecule, the “AUCinf, geometric LSM, Treatment V” value [1, 7] was 34480 ng·h/mL, the “AUClast, geometric LSM, Treatment V” value [1, 7] was 33430 ng·h/mL and the “Cmax, geometric LSM, Treatment V” value [1, 7] was 4500 ng/mL. For the same molecule, the “AUCinf, Ratio (V + C)/V” value [1, 8] was 113.74%, the “AUClast, Ratio (V + C)/V” value [1, 8] was 114.04% and the “Cmax, Ratio (V + C)/V” value [1, 8] was 86.63%. The “changes in the Cmax and AUC values” ([1]; vadadustat in combination with cyclosporine) was “no clinically relevant changes”, the “share of the total radioactivity (AUC0-∞) in plasma” value [2] was “about 15%” and the “increase in exposure (AUC)” value ([3]; listed as vadadustat-O-glucuronide) was “about 2 fold”. For the same molecule, the “increase in exposure (AUC)” value ([3]; listed as vadadustat-Oglucuronide) was ~2 fold, the “change of Cmax values” ([3]; in combination with probenecid) was “relatively unchanged” and the urinary excretion ([3]; in combination with probenecid) was “decreased”. The “AUCinf, geometric LSM, Treatment V” value [3, 7] was 38240 ng·h/mL, the “AUClast, geometric LSM, Treatment V” value [3, 7] was 37410 ng·h/mL and the “Cmax, geometric LSM, Treatment V” value [3, 7] was 5590 ng/mL. The “AUCinf, geometric LSM, Treatment V + P” value [3, 9] was 86580 ng·h/mL, the “AUClast, geometric LSM, Treatment V + P” value [3, 9] was 83810 ng·h/mL and the “Cmax, geometric LSM, Treatment V + P” value [3, 9] was 6170 ng/mL. For the same molecule, the “AUCinf, Ratio (V + P)/V” value [3, 10] was 226.39%, the “AUClast, Ratio (V + P)/V” value [3, 10] was 224.05% and the “Cmax, Ratio (V + P)/V” value [3, 10] was 110.38%.
For `Nc1ncnc2c1ncn2CCOCP(=O)(O)O` [adefovir], the “AUCinf, Ratio (V + A)/A” value [4, 11] was 114.70%, the “AUClast, Ratio (V + A)/A” value [4, 11] was 114.74% and the “Cmax, Ratio (V + A)/A” value [4, 11] was 95.15%. The “systemic exposure to adefovir” value ([4]; adefovir administered with vadadustat vs adefovir alone) was “relatively unchanged”, the AUC(0-inf) ([4]; oral, adefovir 10 mg single dose with vadadustat 600 mg QD (Day 7), read-out: AUCinf, geometric LSM, Treatment V + A) was 230 ng·h/mL and the AUC(0-t) ([4]; oral, adefovir 10 mg single dose with vadadustat 600 mg QD (Day 7), read-out: AUClast, geometric LSM, Treatment V + A) was 227 ng·h/mL. The Cmax ([4]; oral, adefovir 10 mg single dose with vadadustat 600 mg QD (Day 7), read-out: Cmax, geometric LSM, Treatment V + A) was 17.1 ng/mL, the AUC(0-inf) ([4]; adefovir 10 mg alone, single oral dose, fasted, read-out: AUCinf, geometric LSM, Treatment A) was 201 ng·h/mL and the AUC(0-t) ([4]; adefovir 10 mg alone, single oral dose, fasted, read-out: AUClast, geometric LSM, Treatment A) was 198 ng·h/mL. The Cmax ([4]; adefovir 10 mg alone, single oral dose, fasted, read-out: Cmax, geometric LSM, Treatment A) was 17.9 ng/mL.
For `C[C@H]1O[C@@H](O[C@H]2[C@@H](O)C[C@H](O[C@H]3[C@@H](O)C[C@H](O[C@H]4CC[C@@]5(C)[C@H](CC[C@@H]6[C@@H]5C[C@@H](O)[C@]5(C)[C@@H](C7=CC(=O)OC7)CC[C@]65O)C4)O[C@@H]3C)O[C@@H]2C)C[C@H](O)[C@@H]1O` [digoxin], the AUC(0-t) ([5]; both sexes, human, plasma, oral, digoxin 0.5 mg single dose with vadadustat 600 mg QD (Day 16), read-out: AUClast, geometric LSM, Treatment V + D) was 31.7 ng·h/mL, the AUC(0-inf) ([5]; both sexes, human, plasma, digoxin 0.5 mg alone, single oral dose, fasted, read-out: AUCinf, geometric LSM, Treatment D) was 36.3 ng·h/mL and the AUC(0-t) ([5]; both sexes, human, plasma, digoxin 0.5 mg alone, single oral dose, fasted, read-out: AUClast, geometric LSM, Treatment D) was 34.6 ng·h/mL. The “Cmax, geometric LSM, Treatment D” value ([5]; digoxin 0.5 mg alone, single oral dose, fasted) was 2.46 ng/mL, the “AUCinf, geometric LSM, Treatment V + D” value [5, 12] was 33.19 ng·h/mL and the “Cmax, geometric LSM, Treatment V + D” value [5, 12] was 1.64 ng/mL. For the same molecule, the “AUCinf, Ratio (V + D)/D” value [5, 13] was 91.37%, the “AUClast, Ratio (V + D)/D” value [5, 13] was 91.49% and the “Cmax, Ratio (V + D)/D” value [5, 13] was 66.92%. The “decrease of digoxin Cmax” value ([5]; digoxin and vadadustat coadministered vs digoxin alone) was ~35% and the “total exposure (AUClast and AUCinf) to digoxin” value ([5]; digoxin following multiple doses of vadadustat vs digoxin alone) was “unchanged”.
